Laboratory results published in ChEMBL document CHEMBL1133816, “Potent second generation vinyl sulfonamide inhibitors of the trypanosomal cysteine protease cruzain” (2001).

Experiments:
Trypanosoma cruzi [1] = test: Effect on survival time of against […] macrophages infected with Trypanosoma cruzi trypomastigotes at a concentration of 10 uM; format: functional
[2] = target: Cruzipain (Trypanosoma cruzi) (UniProt P25779); test: Second order rate constant for inactivation of cruzain of Trypanosoma cruzi
Trypanosoma cruzi [3] = test: Effect on survival time of against […] macrophages infected with Trypanosoma cruzi trypomastigotes at a concentration of 30 uM; format: functional, organism-based

Sequence of Cruzipain (Trypanosoma cruzi) (P25779 123-467 limits assumed): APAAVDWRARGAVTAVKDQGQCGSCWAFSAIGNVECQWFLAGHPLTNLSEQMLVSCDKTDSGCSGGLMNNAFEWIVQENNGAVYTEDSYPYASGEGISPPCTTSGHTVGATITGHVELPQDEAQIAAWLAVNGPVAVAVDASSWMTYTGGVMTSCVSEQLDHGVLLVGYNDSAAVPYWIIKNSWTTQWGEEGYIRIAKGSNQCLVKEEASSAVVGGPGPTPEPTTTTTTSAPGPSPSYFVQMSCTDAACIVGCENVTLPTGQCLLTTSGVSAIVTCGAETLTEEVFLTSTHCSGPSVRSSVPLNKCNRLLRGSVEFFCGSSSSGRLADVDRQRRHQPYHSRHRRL

| SMILES | Survival time (Trypanosoma cruzi [1]) | K ass [2] | Survival time (Trypanosoma cruzi [3]) |
| --- | --- | --- | --- |
| CN1CCN(C(=O)N[C@@H](Cc2ccccc2)C(=O)N[C@H](/C=C/S(=O)(=O)Nc2ccccc2)CCc2ccccc2)CC1 | 9 days | 1.26e+06 M⁻¹ s⁻¹ | – |
| O=C(N[C@H](/C=C/S(=O)(=O)Nc1ccccc1)CCc1ccccc1)[C@H](Cc1ccccc1)NC(=O)N1CCOCC1 | 9 days | 4.92e+06 M⁻¹ s⁻¹ | – |
| O=C(N[C@H](/C=C/S(=O)(=O)NOCc1ccccc1)CCc1ccccc1)[C@H](Cc1ccccc1)NC(=O)N1CCOCC1 | >24 days | 2.27e+06 M⁻¹ s⁻¹ | – |
| CN1CCN(C(=O)N[C@@H](Cc2ccccc2)C(=O)N[C@H](/C=C/S(=O)(=O)Oc2ccccc2)CCc2ccccc2)CC1 | 9 days | 720000 M⁻¹ s⁻¹ | – |
| CN1CCN(C(=O)N[C@@H](Cc2ccccc2)C(=O)N[C@H](/C=C/S(=O)(=O)NOCc2ccccc2)CCc2ccccc2)CC1 | >24 days | 6.48e+06 M⁻¹ s⁻¹ | – |
| O=C(N[C@H](/C=C/S(=O)(=O)c1ccccc1)CCc1ccccc1)[C@H](Cc1ccccc1)NC(=O)N1CCOCC1 | >24 days | 181000 M⁻¹ s⁻¹ | – |
| O=C(N[C@H](/C=C/S(=O)(=O)Cc1ccccc1)CCc1ccccc1)[C@H](Cc1ccccc1)NC(=O)N1CCOCC1 | 20 days | 1.67e+06 M⁻¹ s⁻¹ | – |
| O=C(N[C@@H](Cc1ccccc1)C(=O)N[C@H](/C=C/S(=O)(=O)Cc1ccccc1)CCc1ccccc1)OCc1ccccc1 | 6 days | 1.4e+06 M⁻¹ s⁻¹ | – |
| O=C(N[C@@H](Cc1ccccc1)C(=O)N[C@H](/C=C/S(=O)(=O)Oc1ccccc1)CCc1ccccc1)OCc1ccccc1 | – | 1.68e+07 M⁻¹ s⁻¹ | Toxic |
| O=C(N[C@H](/C=C/S(=O)(=O)Oc1ccccc1)CCc1ccccc1)[C@H](Cc1ccccc1)NC(=O)N1CCOCC1 | Toxic | 1.02e+07 M⁻¹ s⁻¹ | – |
| CN1CCN(C(=O)N[C@@H](Cc2ccccc2)C(=O)N[C@H](/C=C/S(=O)(=O)c2ccccc2)CCc2ccccc2)CC1 [K-777] | >24 days | 420000 M⁻¹ s⁻¹ | – |
| CN1CCN(C(=O)N[C@@H](Cc2ccccc2)C(=O)N[C@H](/C=C/S(=O)(=O)Cc2ccccc2)CCc2ccccc2)CC1 | 13 days | 3.85e+06 M⁻¹ s⁻¹ | – |
| O=C(N[C@@H](Cc1ccccc1)C(=O)N[C@H](/C=C/S(=O)(=O)Nc1ccccc1)CCc1ccccc1)OCc1ccccc1 | 6 days | 242000 M⁻¹ s⁻¹ | – |
